The structures appear in SMILES notation. Where “and” joins values, the source holds several entries; their conditions need not be identical. Equal entries are not always repeated. Structures can show the parent of a compound that is named as a salt.

Usually melting point stands for the temperature of the solid-liquid transition.

For `c1ccc(C23CCN(CC2)CC3)cc1` [4-phenylquinuclidine], the melting point was 124 °C.
Turning to `C[C@]12CCC(=O)C[C@@H]1CC[C@@H]1[C@@H]2CC[C@]2(C)[C@@H](O)CC[C@@H]12` [stanolone], the melting point turned out to be 181 °C.
The value for `Brc1ccc(-c2cccc(Br)n2)cn1` [6,6'-dibromo-2,3'-bipyridine] was 168 °C.
`O=C1Cc2c1cccc2[N+](=O)[O-]` [2-nitrobicyclo[4.2.0]octa-1,3,5-trien-7-one] came in with a melting point of 116 °C.
The value for `CCC(=O)C(C[C@H](C)N(C)C)(c1ccccc1)c1ccccc1` [methadone] was 102 °C; that for `C[C@@](Cc1ccc(O)c(O)c1)(NN)C(=O)O` [Carbidopa] was 204 °C; that for `CCOC(=O)c1ccccc1B(O)O` [2-(ethoxycarbonyl)benzeneboronic acid] was 132 °C.
In turn, `CC(C)Oc1ccc(Nc2ccccc2)cc1` [4-Isopropoxy-N-phenylaniline] yielded a melting point of 79 °C.
`OB(O)c1cc(F)c(F)cc1F` [2,4,5-trifluorobenzeneboronic acid] registered a melting point of 100 °C.
Then `O=[N+]([O-])c1cccc2ccccc12` [1-Nitronaphthalene], with 62 °C.
The value for `CCOC(=O)c1[nH]c(C)c(C(C)=O)c1C` [3-acetyl-2,4-dimethyl-5-(ethoxycarbonyl)pyrrole] was 142 °C; that for `NC(=O)NCCC[C@H](N)C(=O)O` [L-Citrulline] was 214 °C.
The value for `CC(=O)Nc1ccc(/N=N/c2ccc(/N=N/c3ccc(/N=N/c4ccc(NC(C)=O)cc4)cc3)cc2)cc1` was 247 °C.
For the compound `CC(=O)N1CCN(c2ccc(OCC3COC(Cn4ccnc4)(c4ccc(Cl)cc4Cl)O3)cc2)CC1` (stereo unspecified) [ketoconazole], the melting point was found to be 146 °C.
`OCCc1ccc(OCc2ccccc2)cc1` [2-(4-benzyloxyphenyl)ethanol] yielded a melting point of 86 °C.
For the compound `OC1COC2C(O)COC12` (stereo unspecified) [isosorbide], the melting point stood at 61 °C.
Turning to `CC1(C)C=C(C(=O)O)C1` [Acid 9 (No name)], the melting point was 70 °C.
`O=C(O)CCCCCCCCCCCCCCCCCCC(=O)O` [1,18-octadecanedicarboxylic acid]: the melting point amounted to 127 °C.
The value for `c1ccc2c(c1)Oc1ccccc1S2` [Phenoxathiine] was 59.5 °C; that for `CCC1(CC)C(=O)NC(=O)NC1=O` [5,5-diethylbarbiturate] was 190 °C.
For `CCCI` [1-Iodopropane], the melting point is -101 °C.
Then `Oc1ncc(F)c(O)n1` [5-Fluorouracil], with 283 °C; and `O=C4\C=C2/[C@]([C@H]1CC[C@@]3([C@@](O)(C(=O)CO)CC[C@H]3[C@@H]1CC2)C)(C)CC4` [cortexolone], with 208 °C.
Then `CCCCC[C@H](O)/C=C/[C@H]1[C@H](O)CC(=O)[C@@H]1C/C=C\CCCC(=O)O` [prostaglandin E2], with 67 °C.
The value for `CC(C)Cc1ccc(C(C)C(=O)O)cc1` (stereo unspecified) [ibuprofen] was 76 °C; that for `C[C@]12CC[C@H]3[C@@H](CCC4=CC(=O)CC[C@@]43C)[C@@H]1CC[C@@H]2OC(=O)CCc1ccccc1` [Testosterone phenylpropanoate] was 116 °C.
`CCC#CCCCC` [3-octyne] returned a melting point of -104 °C.
On to `CC(=O)c1ccccc1C(=O)O` [2-acetylbenzoic acid], for which the melting point was 117 °C.
`O=[N+]([O-])c1ccc(N/N=C/C2=C(/C=C/c3ccccc3)CCCC2)c([N+](=O)[O-])c1` yielded a melting point of 163 °C.
Then `CC1CCC(C(C)C)C(OC(=O)/C(=C/c2ccccc2)Cc2ccccc2)C1` (stereo unspecified), with 65 °C; and `CC(=O)C=C(C)c1ccc(-c2ccccc2)cc1` [Xenipentone], with 133 °C.
Then `OC1(c2ccc(Cl)cc2)CCNCC1` [4-(4-chlorophenyl)-4-hydroxypiperidine], with 139 °C.
In the case of `Fc1nc(Cl)c2nc[nH]c2n1` [6-chloro-2-fluoropurine], the melting point is 152 °C.
In the case of `C/C=C(\C)C(=O)O` [tiglic acid], the melting point was found to be 64 °C.
Then `CCOC(=O)C(C(=O)OCC)c1ccccc1` [diethyl phenylmalonate], with 16 °C.
Compound `O=[N+]([O-])c1cccc(O)c1` [3-nitrophenol] registered a melting point of 97 °C.
Then `C[C@@H](O)CO` [1,2-Propanediol], with -60 °C; and `Cc1c2oc3c(C)ccc(C(=O)NC4C(=O)NC(C(C)C)C(=O)N5CCCC5C(=O)N(C)CC(=O)N(C)C(C(C)C)C(=O)OC4C)c3nc-2c(C(=O)NC2C(=O)NC(C(C)C)C(=O)N3CCCC3C(=O)N(C)CC(=O)N(C)C(C(C)C)C(=O)OC2C)c(N)c1=O` (stereo unspecified) [Dactinomycin], with 242 °C; and `Ic1ccc(I)cc1` [1,4-diiodobenzene], with 131 °C.
The value for `O=C1CCC1` [cyclobutanone] was -51 °C; that for `C=Cc1ccc(N)cc1` [p-vinylaniline] was 26 °C.
Then `O=[N+]([O-])c1ccc(Cl)c(Cl)c1` [3,4-dichloronitrobenzene], with 41 °C (2×) and 41.2 °C.
Regarding `N/C(N)=N/c1nc(CSCCC(N)=N/S(N)(=O)=O)cs1` [Famotidine], the melting point is 164 °C.
On to `COC(=O)c1sc(Br)c(Br)c1O` [methyl 4,5-dibromo-3-hydroxythiophene-2-carboxylate], for which the melting point came to 127 °C.
Turning to `N#CCc1ccccc1Cl` [2-chlorobenzyl_cyanide], the melting point stood at 24 °C.
`C=CCN` [allylamine] had a melting point of -88 °C.
The value for `COC(=O)c1ccccc1S(=O)(=O)Cl` [methyl 2-(chlorosulfonyl)benzoate] was 62 °C; that for `COC=O` [methyl formate] was -100 °C.
Regarding `O=C(O)c1ccccc1` [Benzoic acid], the melting point came to 122 °C.
The compound `O=C1OC(=O)C2C1C1(Cl)C(Cl)=C(Cl)C2(Cl)C1(Cl)Cl` (stereo unspecified) [chlorendic anhydride] yielded a melting point of 237 °C.
The value for `O=c1[nH]c(=O)n([C@H]2C[C@H](O)[C@@H](CO)O2)cc1F` [5-fluoro-2'-deoxyuridine] was 150 °C; that for `COC(=O)c1ccc(N)c(N)c1` [methyl 3,4-diaminobenzoate] was 107 °C.
On to `O=C1CCCCCO1` [epsilon-caprolactone], for which the melting point was -2 °C.
`CCC(C)(O)C#CC(C)(O)CC` (stereo unspecified) [3,6-dimethyl-4-octyn-3,6-diol]: the melting point was found to be 54 °C.
In the case of `CCOC(=O)c1cc(C)n(-c2ccc(F)cc2)c1C` [OSM-S-03], the melting point came to 64.5 °C.
In the case of `Nc1ccccn1` [2-aminopyridine], the melting point came out at 58 °C.
In turn, `CC(=O)OC1CCC2(C)C(CCC3C4=C(CCC32)C(C)(C#Cc2ccccc2)CC4)C1` (stereo unspecified) [10,17-dimethyl-17-(phenylethynyl)gon-13-en-3-yl acetate] returned a melting point of 136 °C.
Then `O=[N+]([O-])c1cccc(O)c1` [m-nitrophenol], with 98 °C.
Then `COC(=O)N/C=C/c1ccccc1[N+](=O)[O-]` [methyl [(E)-2-(2-nitrophenyl)ethenyl]carbamate], with 147 °C.
Then `CCOC(=O)C(NC(C)=O)C(=O)OCC` [diethyl acetamidomalonate], with 98 °C; and `CCN1CCOCC1` [4-ethylmorpholine], with -63 °C.
Compound `CC` [ethane] showed a melting point of -183 °C.
On to `C[C@]12CC[C@H](O)CC1=CC[C@@H]1[C@@H]2CC[C@]2(C)C(=O)CC[C@@H]12` [prasterone], for which the melting point was found to be 140 °C.
As to `Nc1ccc(CO)cc1` [4-aminobenzyl alcohol], the melting point stood at 61 °C.
`C=CC(=O)OC` [Methyl acrylate]: the melting point is -75 °C.
The compound `Oc1ccc(-c2ccccc2)cc1` [p-phenylphenol] gave a melting point of 167 °C.
Compound `COc1ccc(/N=N/c2sc(CC#N)nc2C)cc1` displayed a melting point of 159 °C.
Regarding `O=C(O)c1ccc(Cl)s1` [5-chlorothiophene-2-carboxylic acid], the melting point is 151 °C.
The value for `CC[C@H](C)C(=O)O[C@H]1C[C@@H](C)C=C2C=C[C@H](C)[C@H](CC[C@@H]3C[C@@H](O)CC(=O)O3)[C@H]21` [Lovastatin] was 175 °C.
Then `OCC1COc2ccccc2O1` (stereo unspecified) [2-hydroxymethyl-1,4-benzodioxane], with 89 °C; and `COC(=O)c1cc(OC)c(OC)c(OC)c1` [methyl 3,4,5-trimethoxybenzoate], with 85 °C; and `BrC(c1ccccc1)c1ccccc1` [benzhydryl bromide], with 39 °C.
The value for `Cc1ccccc1F` [2-fluorotoluene] was -87 °C.
As for `Oc1noc2nc3ccccc3nc12` [isoxazolo[4,5-b]quinoxalin-3(2H)-one], the melting point was found to be 323 °C.
In turn, `CCC(C)(C)CC` [3,3-dimethylpentane] had a melting point of -134 °C.
Regarding `Cc1ccc([N+](=O)[O-])cc1N` [2-methyl-5-nitroaniline], the melting point is 107 °C.
The value for `NNC(=O)c1ccc([N+](=O)[O-])o1` [5-nitro-2-furohydrazide] was 171 °C; that for `COc1ccc(C(=O)Cl)cc1` [4-methoxybenzoyl chloride] was 22 °C; that for `CNCc1ccccc1` [N-benzylmethylamine] was -55 °C.
Then `O=C(O)CC(CC(=O)O)c1ccc(Cl)cc1` [3-(4-chlorophenyl)glutaric acid], with 166 °C; and `O=C(CBr)c1ccccc1` [2-bromoacetophenone], with 50 °C.
For `Brc1c(Br)c(Br)c(Br)c(Br)c1Br` [hexabromobenzene], the melting point is 306 °C.
Compound `CC(=O)Oc1ccccc1C(=O)O` [acetylsalicylicacid] registered a melting point of 142 °C.
`C=Cc1cccc(O)c1` [m-vinyl_phenol] yielded a melting point of 1 °C.
Then `C1=CCCC1` [Cyclopentene], with -135 °C; and `COCC(CCC(=O)OC)N1CC=CC1` (stereo unspecified) [methyl 4-(2,5-dihydro-1H-pyrrol-1-yl)-5-methoxypentanoate], with 145 °C.

The values are drawn from the Bradley open melting point set (2014).
